Reference: PubChem BioAssay (NCI)
“And” between values parts separate entries of the source, which are not always exact repeats. Identical values can stand only once.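 48-hour exposure; five concentrations; linearly interpolated endpoints. The concentration for 50% growth inhibition is given as GI50. Definition used: TGI = concentration required for complete inhibition of growth.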

Columns and labels:
Test in all cases: DTP human tumour cell line panel, 48 h
SF-295 CNS = test system: SF-295 CNS
MALME-3M melanoma = test system: MALME-3M melanoma
M19-MEL melanoma = test system: M19-MEL melanoma
IGROV1 ovarian = test system: IGROV1 ovarian
UO-31 renal = test system: UO-31 renal
SK-MEL-5 melanoma = test system: SK-MEL-5 melanoma
TK-10 renal = test system: TK-10 renal
RXF 393 renal = test system: RXF 393 renal
DMS 273 small cell lung = test system: DMS 273 small cell lung
DU-145 prostate = test system: DU-145 prostate

Structure (SMILES)	TGI (SF-295 CNS) [µM]	TGI (MALME-3M melanoma)	TGI (M19-MEL melanoma) [µM]	TGI (IGROV1 ovarian)	TGI (UO-31 renal)	TGI (SK-MEL-5 melanoma) [µM]	TGI (TK-10 renal) [µM]	TGI (RXF 393 renal)	TGI (DMS 273 small cell lung) [µM]	GI50 (DU-145 prostate) [µM]	TGI (DU-145 prostate)	GI50 (SF-295 CNS) [µM]	GI50 (MALME-3M melanoma) [µM]	GI50 (IGROV1 ovarian)	GI50 (UO-31 renal)	GI50 (SK-MEL-5 melanoma) [µM]	GI50 (TK-10 renal) [µM]	GI50 (RXF 393 renal) [µM]	GI50 (M19-MEL melanoma) [µM]	GI50 (DMS 273 small cell lung) [µM]
Cc1ccc(S(=O)(=O)N/N=C/c2oc(-c3ccccc3Cl)c(-c3ccccc3Cl)c2[N+](=O)[O-])cc1	> 100	71.4 µM	65	73.3 µM	36 µM	43.1	> 100	28.4 µM												
Cc1ccc([N+](=O)[O-])cc1NC(=O)C(=O)Cc1cc(=O)oc2cc(O)ccc12	> 100	> 100 µM	> 100	> 100 µM	> 100 µM	> 100	> 100	> 100 µM												
O=C(Nc1ccc([N+](=O)[O-])cc1C(=O)O)c1ccc([N+](=O)[O-])cc1	> 100	> 100 µM	> 100	> 100 µM	> 100 µM	> 100	> 100		> 100											
Cn1cnc([N+](=O)[O-])c1SC1=NCCS1	> 100	70.2 µM	> 100	> 100 µM	> 100 µM	> 100	> 100		> 100											
COc1ccc(NC(=O)COC(=O)c2cccc3c(=O)c4ccccc4[nH]c23)cc1	40.2	50.2 µM	39	91.3 µM	36.4 µM	30.1	42.1	35.5 µM												
O=c1[nH]c(=O)n(C2CC(O)C(CO)O2)cc1C#Cc1cc(C(F)(F)F)cc(C(F)(F)F)c1 (stereo not given)	> 100	> 100 µM	> 74	> 100 µM	> 100 µM	> 55.6	> 100	39 µM	> 93.6											
COCOCc1cc(OCc2ccccc2)c(OC)cc1Br	> 100	> 100 µM	> 100	> 100 µM		> 100	> 100	> 100 µM	> 100											
O=C(CC/C(CC(=O)c1ccc(Cl)cc1)=N/O)Nc1ccc(Cl)c(Cl)c1	> 100	> 100 µM	> 100	> 100 µM	> 100 µM	> 100	> 100		> 100											
C#C[C@@]1(O)CCCC2=CC(=O)C[C@]21C	> 100	> 100 µM	> 100	> 100 µM	> 100 µM	> 100	> 100	> 100 µM												
Cc1cc(Cl)ccc1NC(=O)CC1SC(N)=NC1=O (stereo not given)	> 100	> 100 µM	> 100	> 100 µM	> 100 µM	> 100	> 100	> 100 µM	> 100											
N#CCc1ccc(/C(C#N)=C2/OC(=N)C(c3ccc(CC#N)cc3)C2=O)cc1 (stereo not given)	> 100	> 100 µM	> 100	> 100 µM	> 100 µM	> 100	> 100	> 100 µM	> 100											
O=C1CCCC(=O)C1=C(O)CCCCCCCCCCc1ccccc1	> 100		97.9	> 100 µM	60.1 µM	49.5	> 100	92.7 µM	> 100											
COC(=O)c1c(C)cc2c(c1O)C1(O)C(=O)c3cc4c(c(O)c3C(=O)C1(OC)C(O)C2)C(=O)C=C(NC1OC(C)C(OC)C(O)C1OC)C4=O (stereo not given)	0.146	0.249 µM	0.0516	0.0635 µM	0.427 µM		0.293	0.0525 µM	0.468											
Cc1ccc(-c2nc3c(C(=O)NCCN(C)C)cccc3[nH]2)cc1	53.7		29.7	41.9 µM	22.9 µM	26.6	48.9	24.1 µM	27.1											
Cc1ccc(NC(=O)COC(=O)c2cccc3c(=O)c4ccccc4[nH]c23)cc1	> 100	> 100 µM	> 100	> 100 µM	42.9 µM	> 100	> 100	60.5 µM	94.9											
S=P1(c2ccccc2)Nc2ccc(Cl)cc2N1 (stereo not given)	> 100	> 100 µM	67.2	> 100 µM	> 100 µM	> 100	> 100		> 100											
O=C1CSC(=S)N1Cc1cccnc1	> 100	25.6 µM		19 µM	17.6 µM	71.6	7.14	24.2 µM		2.4	5.71 µM	37.7	6.71	4.4 µM	4.61 µM	24.5	2.84	6.11		
Cc1ccc(NC(=O)C(=O)C2NC(=S)NC2=O)c([N+](=O)[O-])c1 (stereo not given)	> 100	> 100 µM	> 100	> 100 µM	> 100 µM	> 100	> 100	> 100 µM	> 100											
COc1ccc(N(C)c2nc(Cl)nc3ccn(C)c23)cc1	> 100	> 100 µM		> 100 µM	> 100 µM	< 0.01	> 100	> 100 µM		< 0.01	> 100 µM	< 0.01	> 100	< 0.01 µM	0.139 µM	< 0.01	91.3	< 0.01		
CS(=O)(=O)Nc1cccc(-c2ccc3c(NC(=O)C4CC4)n[nH]c3c2)c1	> 25	> 25 µM		> 25 µM	> 25 µM	> 13	> 25	> 25 µM		6.82	> 25 µM	5.65	> 4.93	16.3 µM	24.8 µM	0.641	24.6	1.28		

Structure (SMILES)	TGI (SF-295 CNS) [µM]	TGI (MALME-3M melanoma)	TGI (M19-MEL melanoma) [µM]	TGI (IGROV1 ovarian)	TGI (UO-31 renal)	TGI (SK-MEL-5 melanoma) [µM]	TGI (TK-10 renal) [µM]	TGI (RXF 393 renal)	TGI (DMS 273 small cell lung) [µM]	GI50 (DU-145 prostate) [µM]	TGI (DU-145 prostate)	GI50 (SF-295 CNS) [µM]	GI50 (MALME-3M melanoma) [µM]	GI50 (IGROV1 ovarian)	GI50 (UO-31 renal)	GI50 (SK-MEL-5 melanoma) [µM]	GI50 (TK-10 renal) [µM]	GI50 (RXF 393 renal) [µM]	GI50 (M19-MEL melanoma) [µM]	GI50 (DMS 273 small cell lung) [µM]
Cc1[nH]n(-c2ccc(S(=O)(=O)O)cc2)c(=O)c1N=Nc1ccccc1	> 100	> 100 µM		> 100 µM	> 100 µM	> 100	> 100	> 100 µM			> 100 µM									
c1ccc2c(Nc3ccc(Oc4ccc(Nc5c6ccccc6nc6ccccc56)cc4)cc3)c3ccccc3nc2c1	0.829	3.02 µM and 3.82 µM		1.21 µM and 2.64 µM	2.66 µM and 2.6 µM	3.4	0.97	3.87 µM and > 27.2 µM		0.403	1.25 µM and 0.929 µM		2.08	0.292 µM and 1.16 µM	1.37 µM and 1.19 µM			1.56		
O=C1Cc2ccccc2N1c1c(Cl)cccc1Cl	> 100	> 100 µM	> 100	> 100 µM	> 100 µM	> 100	> 100													
O=c1oc2ccc(F)cc2c(=O)n1-c1ccc(Cl)cc1F	3.66	2.51 µM		> 45.8 µM	2.52 µM	0.89	12.2	4.48 µM		1.1	22 µM	1.82	0.403	0.532 µM	0.264 µM	0.29	3.73	0.974		
COc1ccc(/C(=N\O)c2cc(OC)c(OC)c(OC)c2)c(OC)c1N	> 100	> 100 µM		> 100 µM	> 100 µM	> 100	> 100	> 100 µM		4.02	> 100 µM	2.37	8.5	6.83 µM	8.14 µM	5.32	> 100	2.79		
COc1cc(C(=O)N2CCN(c3ccccc3OC)CC2)c(N)cc1OCc1ccccc1	> 100	55.6 µM		> 100 µM	> 100 µM	31.4	73.2	85.9 µM		42	> 100 µM	40.3	22.3	28.5 µM	22.4 µM	16.5	31.9	25.3		
Oc1ccc2ccccc2c1C(c1ccc(Cl)cc1)c1c(O)ccc2ccccc12	12.7	6.71 µM		7.65 µM	10.6 µM	6.93	11.1	8.28 µM			12.4 µM									
CC1C=CC(C)C2(O)C(=O)NC(O)C12 (stereo not given)		> 100 µM	> 100	> 100 µM	> 100 µM	> 100	> 100	> 100 µM	> 100											
N#CCCN(CCC#N)c1ccc(/C=N\c2nc(-c3ccccc3)cs2)cc1	> 100	> 100 µM	> 100	> 100 µM	> 100 µM	> 100	> 100	> 100 µM	> 100											
CCC[CH2][Sn]1([CH2]CCC)[O]C(=O)c2cccc(OC)c2[O]1	2.27	0.633 µM	1.23	2.15 µM	2.07 µM	2.11	0.829		1.96			1.08	0.14	0.755 µM	0.806 µM	0.722	0.316		0.222	0.569
Cc1ccc(/C=C/C(=O)c2ccc(N)cc2)c(C)c1	40.2	3.57 µM		3.08 µM	3.92 µM	21.6	11.9	17.9 µM		10.8	22.7 µM	19.8	1.87	1.41 µM	1.83 µM	9.47	3.13	5.56		
COc1ccc2c(c1)C(=O)/C(=C/c1ccc([N+](=O)[O-])s1)O2	9.61	1.76 µM		1.2 µM	0.614 µM	1.04		0.926 µM		1.79	> 100 µM	2.95	0.451	0.349 µM	0.232 µM	0.326	0.767	0.284		
CCCCCCCCCCCCSC(=NC)NC	3.86	3.97 µM		5.83 µM	5.64 µM	2.85	3.49	4.15 µM		3.12	12.3 µM	1.91	2.04	2.52 µM	2.11 µM	1.48	1.71	1.89		
O=C(N/N=c1/ccoc2cccnc12)N1CCN(c2ncccn2)CC1	6.03	7.22 µM		7.98 µM	3.96 µM	2.97	8.08	4.03 µM		0.796	13.1 µM	0.268	1.17	< 0.01 µM	0.397 µM	0.383	0.992	1.09		
CCN(CC)CCC(=O)N1CCc2c([nH]c3ccccc23)C1c1cccnc1 (stereo not given)	> 100		> 100	> 100 µM	> 100 µM	> 100	> 100		> 100											
CCCCCCCCCCCCCCCCOC(=O)c1c(C)[nH]c(/C=C2\N=C(c3ccc[nH]3)C=C2OC)c1C	11	29.8 µM		9.4 µM	17.1 µM	0.703	3.36	6.46 µM		0.406	> 56.5 µM	2.7	3.67	1.06 µM	1.21 µM	0.119	0.759	1.41		
Cc1cc(O)ccc1O	> 100	31.1 µM		31 µM	26.2 µM	> 100	35	29.1 µM		17.4	31.6 µM	34.9	15.8	16.6 µM	13.4 µM	62	19.5	15.5		
Cn1c(=O)c2[nH]c(C3CC(=O)CC(c4nc5c([nH]4)c(=O)n(C)c(=O)n5C)N3)nc2n(C)c1=O (stereo not given)	> 100	> 100 µM		> 100 µM	> 100 µM	> 100	> 100	> 100 µM			> 100 µM									
c1ccc2c(-c3nc4ccccc4[nH]3)cccc2c1	29.1	34.9 µM		40.3 µM	33.3 µM	72.4	55.7	12 µM		3.04	9.29 µM	2.98	3.81	5.01 µM	4.72 µM	4.28	8.15	2.58		
CC1CC(=O)C(CC(=O)O)C1C(C(=O)C(=O)Nc1c(C#N)cccc1[N+](=O)[O-])[N+](=O)[O-] (stereo not given)	> 100	> 100 µM	> 100	> 100 µM	> 100 µM	> 100	> 100	> 100 µM												
